{"source": "patent US20090069300A1", "about": "“ISOQUINOLINYL AND ISOINDOLINYL DERIVATIVES AS HISTAMINE-3 ANTAGONISTS” (Wyeth, priority 2007, published 2009)", "key": {"[1]": {"molecular_target": "T1, Human Histamine H3 Receptor (Homo sapiens, UniProt Q9Y5N1)", "T1 construct": "expressed in transfected cells; host or cells: HEK293T (stably transfected; membranes prepared from the cells)", "T1 sequence (Q9Y5N1 whole entry)": "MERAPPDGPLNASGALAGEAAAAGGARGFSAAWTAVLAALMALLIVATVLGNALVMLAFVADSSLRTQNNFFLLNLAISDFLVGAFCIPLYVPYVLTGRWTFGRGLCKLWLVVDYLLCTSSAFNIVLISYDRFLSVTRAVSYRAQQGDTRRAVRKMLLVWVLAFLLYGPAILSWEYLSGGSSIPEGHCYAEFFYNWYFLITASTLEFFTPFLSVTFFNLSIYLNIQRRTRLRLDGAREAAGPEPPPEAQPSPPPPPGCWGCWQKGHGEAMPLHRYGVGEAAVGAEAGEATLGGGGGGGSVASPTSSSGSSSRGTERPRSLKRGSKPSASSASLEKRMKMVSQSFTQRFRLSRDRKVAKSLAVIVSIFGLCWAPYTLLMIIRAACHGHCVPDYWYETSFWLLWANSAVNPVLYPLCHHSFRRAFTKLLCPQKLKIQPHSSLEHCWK", "test": "Methyl histamine binding in human histamine H3 receptor cell line", "conditions": "read-out: H3 Binding Ki", "method_in_brief": "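Radioligand binding on membranes (10 μg/well) from a human H3 receptor cell line, 1 nM radioligand, 1 h at 30° C. in 50 mM Tris pH 7.5. Nonspecific binding defined with 10 uM clobenpropit, followed by filtration and scintillation counting. IC50 from four-parameter fit, converted to Ki by Cheng-Prusoff.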"}}, "note": "Where a name gives a salt, the structure may show the parent alone."}
{"molecule": "O=C(c1ccc(-c2ccc3c(c2)CCN(CCN2CCCC2)C3)cc1)N1CCCCC1", "note": "(as salt: hydrochloride) [Example 185, 6-[4-(piperidin-1-ylcarbonyl)phenyl]-2-(2-pyrrolidin-1-ylethyl)-1,2,3,4-tetrahydroisoquinoline]", "values": [{"measurement": "melting point", "result": "270 to 272", "unit": "°C"}]}
{"molecule": "O=C(c1ccc(-c2ccc3c(c2)CCN(CCN2CCCC2)C3)cc1)N1CCOCC1", "note": "(as salt: hydrochloride) [Example 186, 6-[4-(morpholin-4-ylcarbonyl)phenyl]-2-(2-pyrrolidin-1-ylethyl)-1,2,3,4-tetrahydroisoquinoline]", "values": [{"measurement": "melting point", "result": "260 to 261", "unit": "°C"}]}
{"molecule": "O=C1c2ccc(-n3ncc4ccccc43)cc2CCN1CCN1CCCC1", "note": "[Example 36, 6-(1H-indazol-1-yl)-2-(2-(pyrrolidin-1-yl)ethyl)-3,4-dihydroiso-quinolin-1(2H)-one hydrochlroride]", "values": [{"measurement": "Ki", "setting": "[1]", "result": "< 10", "unit": "nM"}, {"measurement": "melting point", "result": "185 to 186", "unit": "°C"}]}
{"molecule": "O=C(NC1CCCC1)c1ccc(-c2ccc3c(c2)CCN(CCN2CCCC2)C3=O)cc1", "note": "[Example 55, N-cyclopentyl-4-[1-oxo-2-(2-pyrrolidin-1-ylethyl)-1,2,3,4-tetrahydroisoquinolin-6-yl]benzamide]", "values": [{"measurement": "Ki", "setting": "[1]", "result": "< 10", "unit": "nM"}, {"measurement": "melting point", "result": "258 to 260", "unit": "°C"}]}
{"molecule": "CNC(=O)c1ccc(Oc2ccc3c(c2)CCN(CCN2CCCC2)C3=O)cc1", "note": "[Example 92, N-methyl-4-{[1-oxo-2-(2-pyrrolidin-1-ylethyl)-1,2,3,4-tetrahydroisoquinolin-6-yl]oxy}benzamide]", "values": [{"measurement": "Ki", "setting": "[1]", "result": "10.1 to 25", "unit": "nM"}, {"measurement": "melting point", "result": "235 to 236", "unit": "°C"}]}
{"molecule": "CCNC(=O)c1ccc(Oc2ccc3c(c2)CCN(CCN2CCCC2)C3=O)cc1", "note": "[Example 93, N-ethyl-4-{[1-oxo-2-(2-pyrrolidin-1-ylethyl)-1,2,3,4-tetrahydroisoquinolin-6-yl]oxy}benzamide]", "values": [{"measurement": "Ki", "setting": "[1]", "result": "< 10", "unit": "nM"}, {"measurement": "melting point", "result": "215 to 216", "unit": "°C"}]}
{"molecule": "CC(C)NC(=O)c1ccc(Oc2ccc3c(c2)CCN(CCN2CCCC2)C3=O)cc1", "note": "[Example 94, N-isopropyl-4-{[1-oxo-2-(2-pyrrolidin-1-ylethyl)-1,2,3,4-tetrahydroisoquinolin-6-yl]oxy}benzamide]", "values": [{"measurement": "Ki", "setting": "[1]", "result": "< 10", "unit": "nM"}, {"measurement": "melting point", "result": "223 to 224", "unit": "°C"}]}
{"molecule": "O=C(NC1CCC1)c1ccc(Oc2ccc3c(c2)CCN(CCN2CCCC2)C3=O)cc1", "note": "[Example 97, N-cyclobutyl-4-{[1-oxo-2-(2-pyrrolidin-1-ylethyl)-1,2,3,4-tetrahydroisoquinolin-6-yl]oxy}benzamide]", "values": [{"measurement": "Ki", "setting": "[1]", "result": "10.1 to 25", "unit": "nM"}, {"measurement": "melting point", "result": "236 to 237", "unit": "°C"}]}
{"molecule": "O=C(NC1CC1)c1ccc(Oc2ccc3c(c2)CCN(CCN2CCCC2)C3=O)cc1", "note": "[Example 99, N-cyclopropyl-4-{[1-oxo-2-(2-pyrrolidin-1-ylethyl)-1,2,3,4-tetrahydroisoquinolin-6-yl]oxy}benzamid;e]", "values": [{"measurement": "Ki", "setting": "[1]", "result": "< 10", "unit": "nM"}, {"measurement": "melting point", "result": "227 to 228", "unit": "°C"}]}
{"molecule": "O=C(c1ccc(-c2ccc3c(c2)CCN(CCN2CCCC2)C3=O)cc1)C1CC1", "note": "[Example 103, 6-[4-(cyclopropylcarbonyl)phenyl]-2-(2-pyrrolidin-1-ylethyl)-3,4-dihydro-isoquinolin-1(2H)-one]", "values": [{"measurement": "Ki", "setting": "[1]", "result": "< 10", "unit": "nM"}, {"measurement": "melting point", "result": "244 to 246", "unit": "°C"}]}
{"molecule": "C[C@@H]1CCCN1CCN1Cc2cc(-c3ccc(C#N)cc3)ccc2C1=O", "note": "[Example 117, (R)-4-(2-(2-(2-methylpyrrolidin-1-yl)ethyl)-1-oxoisoindolin-5-yl)benzonitrile]", "values": [{"measurement": "Ki", "setting": "[1]", "result": "10.1 to 25", "unit": "nM"}, {"measurement": "melting point", "result": "214 to 216", "unit": "°C"}]}
{"molecule": "C[C@@H]1CCCN1CCN1Cc2cc(-c3ccc(C(=O)N4CCCC4)cc3)ccc2C1=O", "note": "[Example 119, 2-{2-[(2R)-2-methylpyrrolidin-1-yl]ethyl}-5-[4-(pyrrolidin-1-ylcarbonyl)phenyl]-isoindolin-1-one]", "values": [{"measurement": "Ki", "setting": "[1]", "result": "> 100", "unit": "nM"}, {"measurement": "melting point", "result": "184 to 185", "unit": "°C"}]}
{"molecule": "O=C(c1ccc(-c2ccc3c(c2)CCN(CCN2CCCC2)C3=O)cc1F)N1CCCC1", "note": "[Example 133, 6-[3-fluoro-4-(pyrrolidin-1-ylcarbonyl)phenyl]-2-(2-pyrrolidin-1-ylethyl)-3,4-dihydroisoquinolin-1(2H)-one]", "values": [{"measurement": "Ki", "setting": "[1]", "result": "< 10", "unit": "nM"}, {"measurement": "melting point", "result": "231 to 232", "unit": "°C"}]}
{"molecule": "CS(=O)(=O)c1ccc(-c2ccc3c(c2)CCN(CCN2CCCC2)C3=O)cc1", "note": "[Example 135, 6-[4-(methylsulfonyl)phenyl]-2-(2-pyrrolidin-1-ylethyl)-3,4-dihydroisoquinolin-1(2H)-one]", "values": [{"measurement": "Ki", "setting": "[1]", "result": "< 10", "unit": "nM"}, {"measurement": "melting point", "result": "153 to 155", "unit": "°C"}]}
{"molecule": "FC(F)(F)Oc1ccc(-c2ccc3c(c2)CCN(CCN2CCCC2)C3)cc1", "note": "[Example 171, 2-(2-pyrrolidin-1-ylethyl)-6-[4-(trifluoromethoxy)phenyl]-1,2,3,4-tetrahydroisoquinoline]", "values": [{"measurement": "Ki", "setting": "[1]", "result": "> 100", "unit": "nM"}, {"measurement": "melting point", "result": "> 230", "unit": "°C"}]}
{"molecule": "C[C@@H]1CCCN1CCN1CCc2cc(-c3ccc(F)cc3)ccc2C1", "note": "[Example 172, 6-(4-fluorophenyl)-2-{2-[(2R)-2-methylpyrrolidin-1-yl]ethyl}-1,2,3,4-tetrahydroisoquinoline]", "values": [{"measurement": "Ki", "setting": "[1]", "result": "25.1 to 50", "unit": "nM"}, {"measurement": "melting point", "result": "232 to 234", "unit": "°C"}]}
{"molecule": "Fc1cccc(-c2ccc3c(c2)CCN(CCN2CCCC2)C3)c1", "note": "[Example 173, 6-(3-fluorophenyl)-2-(2-pyrrolidin-1-ylethyl)-1,2,3,4-tetrahydroisoquinoline]", "values": [{"measurement": "Ki", "setting": "[1]", "result": "50.1 to 100", "unit": "nM"}, {"measurement": "melting point", "result": "272 to 274", "unit": "°C"}]}
{"molecule": "Fc1ccc(-c2ccc3c(c2)CCN(CCN2CCCCC2)C3)cc1", "note": "[Example 174, 6-(4-fluorophenyl)-2-(2-piperidin-1-ylethyl)-1,2,3,4-tetrahydroisoquinoline]", "values": [{"measurement": "Ki", "setting": "[1]", "result": "50.1 to 100", "unit": "nM"}, {"measurement": "melting point", "result": "272 to 274", "unit": "°C"}]}
{"molecule": "Fc1ccc(-c2ccc3c(c2)CCN(CCN2CCCCCC2)C3)cc1", "note": "[Example 175, 2-(2-azepan-1-ylethyl)-6-(4-fluorophenyl)-1,2,3,4-tetrahydroisoquinoline]", "values": [{"measurement": "Ki", "setting": "[1]", "result": "> 100", "unit": "nM"}, {"measurement": "melting point", "result": "258 to 260", "unit": "°C"}]}
{"molecule": "c1cc2c(cc1-c1ccc3c(c1)OCO3)CCN(CCN1CCCC1)C2", "note": "[Example 176, 6-(1,3-benzodioxol-5-yl)-2-(2-pyrrolidin-1-ylethyl)-1,2,3,4-tetrahydroisoquinoline]", "values": [{"measurement": "Ki", "setting": "[1]", "result": "50.1 to 100", "unit": "nM"}, {"measurement": "melting point", "result": "257 to 259", "unit": "°C"}]}
{"molecule": "Fc1ccc(-c2ccc3c(c2)CCN(CCN2CCCC2)C3)cc1", "note": "[Example 177]", "values": [{"measurement": "melting point", "result": "250 to 251", "unit": "°C"}]}
{"molecule": "c1ccc(-c2ccc3c(c2)CCN(CCN2CCCC2)C3)cc1", "note": "[Example 178]", "values": [{"measurement": "melting point", "result": "268 to 270", "unit": "°C"}]}
